Source: article PMC8445441, “Elucidating the mechanism by which synthetic helper peptides sensitize Pseudomonas aeruginosa to multiple antibiotics” (PLoS Pathogens, 2021)
Read-outs that look alike come from different tables or passages of the source.

Key:
[1] = tested on: P. aeruginosa AUMC-Pa-3; experiment: microbe, parasite or virus in culture
Outline: (§1)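 Triplicate microdilution MICs: MHB, two-fold series, equal-volume inoculum from ~1 × 10^6 CFU/mL suspension, 37 °C, 18 h, lowest concentration lacking visible growth.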

[2] = tested on: P. aeruginosa AUMC-Pa-4; experiment: microbe, parasite or virus in culture
Outline: as §1

[3] = tested on: P. aeruginosa AUMC-Pa-5; experiment: microbe, parasite or virus in culture
Outline: as §1

[4] = tested on: P. aeruginosa AUMC-Pa-6; experiment: microbe, parasite or virus in culture
Outline: as §1

[5] = tested on: P. aeruginosa PAO1; experiment: microbe, parasite or virus in culture; conditions: PAO1; for FICI / MICac: the MIC for the antibiotic in the combination: S3 Table
Outline: as §1

[6] = tested on: P. aeruginosa ATCC27853; experiment: microbe, parasite or virus in culture; design: MICa: MIC of the antibiotic / MICac: MIC of the antibiotic in the combination: unit not given beside the values
Outline: as §1

[7] = tested on: P. aeruginosa NR-31040; experiment: microbe, parasite or virus in culture; design: MICa: MIC of the antibiotic / MICac: MIC of the antibiotic in the combination: unit not given beside the values
Outline: as §1

[8] = tested on: P. aeruginosa NR-31041; experiment: microbe, parasite or virus in culture; design: MICa: MIC of the antibiotic / MICac: MIC of the antibiotic in the combination: unit not given beside the values
Outline: as §1

[9] = tested on: P. aeruginosa PA14; experiment: microbe, parasite or virus in culture; design: MICa: MIC of the antibiotic / MICac: MIC of the antibiotic in the combination: unit not given beside the values
Outline: as §1

[10] = tested on: P. aeruginosa PAK; experiment: microbe, parasite or virus in culture; design: MICa: MIC of the antibiotic / MICac: MIC of the antibiotic in the combination: unit not given beside the values
Outline: as §1

[11] = tested on: P. aeruginosa HM-214; conditions: strain HM-214; antibiotic + D-11 (MICb/MICbc 128/4)
Outline: as §1

[12] = tested on: P. aeruginosa AUMC-Pa-1; conditions: strain AUMC-Pa-1; antibiotic + D-11 (MICb/MICbc 128/4)
Outline: as §1

[13] = tested on: P. aeruginosa AUMC-Pa-2; conditions: strain AUMC-Pa-2; antibiotic + D-11 (MICb/MICbc 64/4)
Outline: as §1

[14] = tested on: clinical P. aeruginosa isolates; experiment: microbe, parasite or virus in culture; conditions: Pseudomonas aeruginosa, 18 h, antibiotic alone
Outline: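 MIC is the lowest drug concentration showing no visible growth after 18 h at 37 °C. Two-fold dilutions in MHB were combined with an equal volume of bacterial suspension (about 1 × 10^6 CFU/mL), following CLSI broth microdilution, in triplicate.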

For `C[C@H]1COc2c(N3CCN(C)CC3)c(F)cc3c(=O)c(C(=O)O)cn1c23` [Levofloxacin], the MIC ([1]; Pseudomonas aeruginosa, AUMCPA3, 18 h, read-out: MICa: MIC of the antibiotic) was 0.5 µM, the FICI ([1]; strain AUMC-Pa-3, antibiotic + D-11 (MICb/MICbc 128/4)) was 0.281 and the “MICac: MIC of the antibiotic in the combination” value (shortened to “MICac: MIC of the antibiotic”) ([1]; strain AUMC-Pa-3, with D-11 at MICbc 4, unit not given) was 0.125. The MIC ([2]; Pseudomonas aeruginosa, AUMCPA4, 18 h, read-out: MICa: MIC of the antibiotic) was 0.5 µM, the FICI ([2]; strain AUMC-Pa-4, antibiotic + D-11 (MICb/MICbc 128/4)) was 0.531 and the “MICac: MIC of the antibiotic” value ([2]; strain AUMC-Pa-4, with D-11 at MICbc 4, unit not given) was 0.25. For the same compound, the MIC ([3]; Pseudomonas aeruginosa, AUMCPA5, 18 h, read-out: MICa: MIC of the antibiotic) was 0.5 µM, the FICI ([3]; strain AUMC-Pa-5, antibiotic + D-11 (MICb/MICbc 64/4)) was 2.063 and the “MICac: MIC of the antibiotic” value ([3]; strain AUMC-Pa-5, with D-11 at MICbc 4, unit not given) was 1. The MIC ([4]; Pseudomonas aeruginosa, AUMCPA6, 18 h, read-out: MICa: MIC of the antibiotic) was 0.25 µM, the FICI ([4]; strain AUMC-Pa-6, antibiotic + D-11 (MICb/MICbc 64/4)) was 1.063 and the “MICac: MIC of the antibiotic” value ([4]; strain AUMC-Pa-6, with D-11 at MICbc 4, unit not given) was 0.25/0.25. For the same compound, the MIC ([5]; Pseudomonas aeruginosa, PAO1, 18 h, read-out: MICa: the MIC of antibiotics, S3 Table, antibiotic alone) was 1 µM, the FICI ([5]; antibiotic + 2 μM D-11) was 0.125 and the FICI ([5]; antibiotic + 4 μM D-11) was 0.156. The “MICac: the MIC for the antibiotic in the combination” value ([5]; with 2 μM D-11) was 0.0625 µM, the “MICac: the MIC for the antibiotic in the combination” value ([5]; with 4 μM D-11) was 0.03125 µM and the MIC ([6]; Pseudomonas aeruginosa, ATCC27853, 18 h, read-out: MICa: MIC of the antibiotic) was 1 µM. The FICI ([6]; strain ATCC27853, antibiotic + D-11 (MICb/MICbc 32/4)) was 0.250, the “MICac: MIC of the antibiotic” value ([6]; strain ATCC27853, with D-11 at MICbc 4, unit not given) was 0.125 and the MIC ([7]; Pseudomonas aeruginosa, NR31040, 18 h, read-out: MICa: MIC of the antibiotic) was 1 µM. For the same compound, the FICI ([7]; strain NR-31040, antibiotic + D-11 (MICb/MICbc 128/4)) was 0.281, the “MICac: MIC of the antibiotic” value ([7]; strain NR-31040, with D-11 at MICbc 4, unit not given) was 0.25 and the MIC ([8]; Pseudomonas aeruginosa, NR31041, 18 h, read-out: MICa: MIC of the antibiotic) was 1 µM. The FICI ([8]; strain NR-31041, antibiotic + D-11 (MICb/MICbc 64/4)) was 0.313, the “MICac: MIC of the antibiotic” value ([8]; strain NR-31041, with D-11 at MICbc 4, unit not given) was 0.25 and the MIC ([9]; Pseudomonas aeruginosa, PA14, 18 h, read-out: MICa: MIC of the antibiotic) was 0.5 µM. For the same compound, the FICI ([9]; strain PA14, antibiotic + D-11 (MICb/MICbc 128/4)) was 0.531, the “MICac: MIC of the antibiotic” value ([9]; strain PA14, with D-11 at MICbc 4, unit not given) was 0.25 and the MIC ([10]; Pseudomonas aeruginosa, 18 h, read-out: MICa: MIC of the antibiotic) was 0.5 µM. The FICI ([10]; strain PAK, antibiotic + D-11 (MICb/MICbc 64/4)) was 0.563, the “MICac: MIC of the antibiotic” value ([10]; strain PAK, with D-11 at MICbc 4, unit not given) was 0.25 and the FICI [11] was 0.531. It also gave an FICI [12] of 0.156, an FICI [13] of 0.563 and an MIC ([14]; read-out: Antibiotic sensibility (MIC) of clinical P. aeruginosa isolate AUMC-Pa-1, strain AUMC-Pa-1) of 8 µM. The MIC ([14]; read-out: Antibiotic sensibility (MIC) of clinical P. aeruginosa isolate AUMC-Pa-2, strain AUMC-Pa-2) was 0.5 µM, the MIC ([14]; read-out: Antibiotic sensibility (MIC) of clinical P. aeruginosa isolate AUMC-Pa-3, strain AUMC-Pa-3) was 0.5 µM and the MIC ([14]; read-out: Antibiotic sensibility (MIC) of clinical P. aeruginosa isolate AUMC-Pa-4, strain AUMC-Pa-4) was 0.5 µM. It also gave an MIC ([14]; read-out: Antibiotic sensibility (MIC) of clinical P. aeruginosa isolate AUMC-Pa-5, strain AUMC-Pa-5) of 0.5 µM, an MIC ([14]; read-out: Antibiotic sensibility (MIC) of clinical P. aeruginosa isolate AUMC-Pa-6, strain AUMC-Pa-6) of 0.25 µM and an MIC ([14]; read-out: Antibiotic sensibility (MIC) of clinical P. aeruginosa isolate HM-214, strain HM-214) of 1 µM. For the same compound, the MIC ([14]; read-out: Antibiotic sensibility (MIC) of clinical P. aeruginosa isolate NR-31040, strain NR-31040) was 1 µM and the MIC ([14]; read-out: Antibiotic sensibility (MIC) of clinical P. aeruginosa isolate NR-31041, strain NR-31041) was 1 µM.
